This assay addresses T1, human α-thrombin (Homo sapiens, UniProt P00734).
T1 construct: residues in the termini of the light chain; purchased Chemo-Sero-Therapeutic Research Institute (Kaketsuken, Japan), as a gift, not bought
Kind of assay: Thrombin amidolytic activity assay with chromogenic substrate S2238. The class given is biochemical. The conditions noted are these: for Hill slope of thrombin amidolytic inhibition: 0 min pre-incubation where stated; for Hill Slope: Table 2. The method, then: Thrombin amidolytic activity assays for all peptides were performed in 96-wells microtiter plates in 50 mM Tris buffer (pH 7.4) containing 100 mM NaCl and 1 mg/ml bovine serum albumin. […] The rates of formation of p-nitroaniline were followed by measuring the absorbance at 405 nm for 10 min with a Tecan InfinitePro M200 microplate reader from Tecan (Männedorf, Switzerland). Dose-response curves were fitted using the GraphPad Prizm software (San Diego, Calif., USA) to calculate IC50 values and Hill coefficients. To measure the inhibitory constants, different concentrations of S2238 were used and the residual velocities were determined using the Morrison's tight binding equation. Inhibition of thrombin fibrinogenolytic activity of peptides were tested by measuring absorbance at 650 nm using a Sunrise microplate reader from Tecan (Männedorf, Switzerland) as described previously [Koh C Y, et al., J Biol Chem 282: 29101-13 (2007)]. The selectivity of avathrin was examined against 13 serine proteases (FIG. 5). Effects of avathrin on the amidolytic activities of these serine proteases were determined using respective chromogenic substrates. […] Avathrin (150 μM) was incubated with thrombin (5 μM), in 50 mM Tris buffer (pH 7.4) containing 150 mM NaCl and 1 mg/ml BSA. After different incubation times, reactions were quenched with 1% TFA (pH 1.8) and loaded onto a Jupiter Proteo column (4 μm, 90 Å, 100×1.0 mm) attached to a Dionex nano-HPLC system from Thermo Fisher Scientific (Waltham, Mass., USA) and eluted using an acetonitrile gradient with 0.05% TFA and 99.95% MilliQ water as eluent A and 0.05% TFA, 19.95% MilliQ water and 80% ACN as eluent B. Masses of all peaks were measured to identify cleavage products, which were subsequently quantified by integrating the peaks and calculating the area under the curves. To measure the effect of different pre-incubation times on the thrombin inhibitory activity, amidolytic assays were performed for various incubation times (up to 36 h).

Setting [1] is: IC50 of inhibition of thrombin amidolytic activity, thrombin 0.81 nM, S2238 100 μM, without pre-incubation (0 min) where stated.
Where [2] appears, read: inhibitory constant Ki for thrombin, thrombin 0.81 nM, various S2238 concentrations.

Where “and” joins values, the source holds several entries; their conditions need not be identical. Equal entries are not always repeated. Peptide text beside a SMILES is read from it.

A word on the Ki: it is the equilibrium dissociation constant of an inhibitor or competing ligand from its target. Low values mean tighter binding, high ones weaker binding. The term IC50 denotes the midpoint of a concentration-inhibition curve. A higher IC50 goes with lower potency.

Compound `CC[C@H](C)[C@H](NC(=O)[C@H](CC(=O)O)NC(=O)[C@H](CCC(=O)O)NC(=O)[C@H](Cc1ccccc1)NC(=O)[C@H](CC(=O)O)NC(=O)CNC(=O)CNC(=O)[C@H](CC(C)C)NC(=O)CNC(=O)[C@H](CCCCN)NC(=O)[C@H](CCCNC(=N)N)NC(=O)[C@H](CO)NC(=O)[C@H](CCSC)NC(=O)[C@H](CCCCN)NC(=O)[C@@H]1CCCN1C(=O)[C@@H](NC(=O)[C@H](C)NC(=O)[C@@H](NC(=O)[C@H](Cc1c[nH]cn1)NC(=O)[C@H](CC(=O)O)NC(=O)[C@H](CCC(=O)O)NC(=O)CNC(=O)[C@@H](N)CO)[C@@H](C)O)C(C)C)C(=O)N1CCC[C@H]1C(=O)N1CCC[C@H]1C(=O)N[C@@H](CCC(=O)O)C(=O)N[C@@H](C)C(=O)N[C@@H](Cc1ccc(O)cc1)C(=O)N[C@@H](CCC(=O)O)C(=O)N[C@@H](CCCNC(=N)N)C(=O)N[C@@H](C)C(=O)N[C@@H](CC(C)C)C(=O)N[C@@H](CCC(=O)O)C(=O)N[C@@H](C)C(=O)N[C@@H](CCCNC(=N)N)C(=O)O` [Amblyomma americanum] (H-SGEDHTAVPKMSRKGLGGDFEDIPPEAYERALEAR-OH) had an inhibition constant (Ki) (Affinity (nM), Table 4, Ki values) of 1.63 ± 0.61 nM. For the same compound, the IC50 (IC50 (nM), Table 4, members of variegin family) turned out to be 14.29 ± 0.12 nM.
On to `CC[C@H](C)[C@H](NC(=O)[C@H](CCCCN)NC(=O)[C@@H]1CCCN1C(=O)[C@@H](NC(=O)[C@H](C)NC(=O)[C@@H](NC(=O)[C@H](CC(=O)O)NC(=O)[C@H](Cc1c[nH]cn1)NC(=O)CNC(=O)[C@H](CC(=O)O)NC(=O)[C@@H](N)CO)[C@@H](C)O)C(C)C)C(=O)N[C@@H](CO)C(=O)N[C@@H](CCCCN)C(=O)N[C@@H](CCC(N)=O)C(=O)NCC(=O)N[C@@H](CC(C)C)C(=O)NCC(=O)NCC(=O)N[C@@H](CC(=O)O)C(=O)N[C@@H](Cc1ccccc1)C(=O)N[C@@H](CCC(=O)O)C(=O)N[C@@H](CCC(=O)O)C(=O)N[C@H](C(=O)N1CCC[C@H]1C(=O)N[C@@H](CO)C(=O)N[C@@H](CC(=O)O)C(=O)N[C@@H](CCC(=O)O)C(=O)N[C@H](C(=O)N[C@H](C(=O)N[C@@H](CCC(=O)O)C(=O)O)[C@@H](C)CC)[C@@H](C)CC)[C@@H](C)CC` [G2D, Q5D] (H-SDGHDTAVPKISKQGLGGDFEEIPSDEIIE-OH), for which the “fold drop in potency compared with avathrin” value (“fold drop in potency” below) is on record as under 2 fold, the “Hill slope of thrombin amidolytic inhibition” value worked out at 0.71±0.03 and the “Hill Slope” value was found to be 0.71 ± 0.03. Under setting [1], this compound showed an IC50 of 13 ± 1.23 nM.
On to `CC[C@H](C)[C@H](NC(=O)[C@H](CCCCN)NC(=O)[C@@H]1CCCN1C(=O)[C@@H](NC(=O)[C@H](C)NC(=O)[C@@H](NC(=O)[C@H](CCC(N)=O)NC(=O)[C@H](Cc1c[nH]cn1)NC(=O)CNC(=O)CNC(=O)[C@@H](N)CO)[C@@H](C)O)C(C)C)C(=O)N[C@@H](CO)C(=O)N[C@@H](CCCCN)C(=O)N[C@@H](CCC(N)=O)C(=O)NCC(=O)N1CCC[C@H]1C(=O)N1CCC[C@H]1C(=O)NCC(=O)N[C@@H](CC(=O)O)C(=O)N[C@@H](Cc1ccccc1)C(=O)N[C@@H](CCC(=O)O)C(=O)N[C@@H](CCC(=O)O)C(=O)N[C@H](C(=O)N1CCC[C@H]1C(=O)N[C@@H](CO)C(=O)N[C@@H](CC(=O)O)C(=O)N[C@@H](CCC(=O)O)C(=O)N[C@H](C(=O)N[C@H](C(=O)N[C@@H](CCC(=O)O)C(=O)O)[C@@H](C)CC)[C@@H](C)CC)[C@@H](C)CC` [L16P, G17P] (H-SGGHQTAVPKISKQGPPGDFEEIPSDEIIE-OH), for which the “fold drop in potency” value is reported as over 25 fold, the “Hill slope of thrombin amidolytic inhibition” value came to 0.54±0.02 and the “Hill Slope” value was 0.54 ± 0.02. The IC50 under setting [1] was found to be 181 ± 3.76 nM.
Regarding `CC[C@H](C)[C@H](NC(=O)[C@H](CCCCN)NC(=O)[C@@H]1CCCN1C(=O)[C@@H](NC(=O)[C@H](C)NC(=O)[C@@H](NC(=O)[C@H](CCC(N)=O)NC(=O)[C@H](Cc1c[nH]cn1)NC(=O)CNC(=O)CNC(=O)[C@@H](N)CO)[C@@H](C)O)C(C)C)C(=O)N[C@@H](C)C(=O)N[C@@H](CCCCN)C(=O)N[C@@H](CCC(N)=O)C(=O)NCC(=O)N[C@@H](CC(C)C)C(=O)NCC(=O)NCC(=O)N[C@@H](CC(=O)O)C(=O)N[C@@H](Cc1ccccc1)C(=O)N[C@@H](CCC(=O)O)C(=O)N[C@@H](CCC(=O)O)C(=O)N[C@H](C(=O)N1CCC[C@H]1C(=O)N[C@@H](CO)C(=O)N[C@@H](CC(=O)O)C(=O)N[C@@H](CCC(=O)O)C(=O)N[C@H](C(=O)N[C@H](C(=O)N[C@@H](CCC(=O)O)C(=O)O)[C@@H](C)CC)[C@@H](C)CC)[C@@H](C)CC` [Peptide S12A] (H-SGGHQTAVPKIAKQGLGGDFEEIPSDEIIE-OH; N-terminus and C-terminus assumed), the “fold drop in potency” value was > 10 fold and 20 fold; the “Hill slope of thrombin amidolytic inhibition” value is 0.62±0.01; the “Hill Slope” value is 0.62 ± 0.01. Under setting [1], this compound yielded an IC50 of 101 ± 1.32 nM. The Ki under setting [2] turned out to be 6.07 ± 0.18 nM.
Turning to `CC[C@H](C)[C@H](NC(=O)[C@H](CCCCN)NC(=O)[C@@H]1CCCN1C(=O)[C@@H](NC(=O)[C@H](C)NC(=O)[C@@H](NC(=O)[C@H](CCC(N)=O)NC(=O)[C@H](Cc1c[nH]cn1)NC(=O)CNC(=O)CNC(=O)[C@@H](N)CO)[C@@H](C)O)C(C)C)C(=O)N[C@@H](Cc1c[nH]cn1)C(=O)N[C@@H](CCCCN)C(=O)N[C@@H](CCC(N)=O)C(=O)NCC(=O)N[C@@H](CC(C)C)C(=O)NCC(=O)NCC(=O)N[C@@H](CC(=O)O)C(=O)N[C@@H](Cc1ccccc1)C(=O)N[C@@H](CCC(=O)O)C(=O)N[C@@H](CCC(=O)O)C(=O)N[C@H](C(=O)N1CCC[C@H]1C(=O)N[C@@H](CO)C(=O)N[C@@H](CC(=O)O)C(=O)N[C@@H](CCC(=O)O)C(=O)N[C@H](C(=O)N[C@H](C(=O)N[C@@H](CCC(=O)O)C(=O)O)[C@@H](C)CC)[C@@H](C)CC)[C@@H](C)CC` [Peptide S12H] (H-SGGHQTAVPKIHKQGLGGDFEEIPSDEIIE-OH; N-terminus and C-terminus assumed), the “fold drop in potency” value is recorded as 2 fold, the “Hill slope of thrombin amidolytic inhibition” value was 0.88±0.02 and the “Hill Slope” value came out at 0.88 ± 0.02. Under setting [1], this compound showed a half-maximal inhibitory concentration (IC50) of 18.5 ± 0.32 nM. Under setting [2], affinity was put at a Ki of 1.23 ± 0.04 nM.
Under setting [1], `CC[C@H](C)[C@H](NC(=O)[C@H](C)NC(=O)[C@H](CC(=O)O)NC(=O)[C@H](CC(=O)O)NC(=O)[C@@H]1CCCN1C(=O)[C@@H](NC(=O)[C@H](CCC(=O)O)NC(=O)[C@H](CCC(=O)O)NC(=O)[C@H](Cc1ccccc1)NC(=O)[C@H](CC(=O)O)NC(=O)CNC(=O)[C@@H]1CCCN1C(=O)[C@@H]1CCCN1C(=O)[C@H](C)NC(=O)[C@@H](NC(=O)[C@H](CO)NC(=O)[C@H](Cc1ccc(O)cc1)NC(=O)[C@H](CCSC)NC(=O)[C@H](CCCCN)NC(=O)[C@@H]1CCCN1C(=O)[C@@H](NC(=O)[C@H](C)NC(=O)[C@@H](NC(=O)[C@H](CC(=O)O)NC(=O)CNC(=O)[C@H](CCC(N)=O)NC(=O)[C@H](CC(=O)O)NC(=O)[C@@H](N)CO)C(C)C)[C@@H](C)CC)[C@@H](C)O)[C@@H](C)CC)C(=O)N[C@@H](CCC(=O)O)C(=O)N[C@@H](CCC(=O)O)C(=O)O` [UV003] (H-SDQGDVAIPKMYSTAPPGDFEEIPDDAIEE-OH) came in with an IC50 of 0.6 ± 0.2 nM. Under setting [2], this compound showed a Ki of 0.00421 ± 0.00096 nM.
Compound `CC[C@H](C)[C@H](NC(=O)[C@H](C)NC(=O)[C@H](CC(=O)O)NC(=O)[C@H](CC(=O)O)NC(=O)[C@@H]1CCCN1C(=O)[C@@H](NC(=O)[C@H](CCC(=O)O)NC(=O)[C@H](CCC(=O)O)NC(=O)[C@H](Cc1ccccc1)NC(=O)[C@H](CC(=O)O)NC(=O)CNC(=O)[C@@H]1CCCN1C(=O)[C@@H]1CCCN1C(=O)[C@H](C)NC(=O)[C@@H](NC(=O)[C@H](CCCCN)NC(=O)[C@H](Cc1c[nH]cn1)NC(=O)[C@H](CCSC)NC(=O)[C@H](CCCCN)NC(=O)[C@@H]1CCCN1C(=O)[C@H](CCC(=O)O)NC(=O)[C@H](C)NC(=O)[C@H](CCCNC(=N)N)NC(=O)[C@@H](NC(=O)[C@H](C)NC(=O)[C@H](CCC(=O)O)NC(=O)[C@H](CC(=O)O)NC(=O)[C@@H](N)CO)C(C)C)[C@@H](C)O)[C@@H](C)CC)C(=O)N[C@@H](CCC(=O)O)C(=O)N[C@@H](CCC(=O)O)C(=O)O` [UV004] (H-SDEAVRAEPKMHKTAPPGDFEEIPDDAIEE-OH) had a 50% inhibitory concentration (IC50) under setting [1] of 0.46 ± 0.08 nM. This compound registered an inhibition constant (Ki) under setting [2] of 0.00455 ± 0.00037 nM.

(Values after US10906946B2, “Thrombin inhibitors” (priority 2015, dated 2021).)
